Reference: paper PMC10094418, “Butein Inhibits Cell Growth by Blocking the IL-6/IL-6Rα Interaction in Human Ovarian Cancer and by Regulation of the IL-6/STAT3/FoxO3a Pathway” (International Journal of Molecular Sciences, 2023)

What was measured:
[1] = tested on: SKOV3 cells; test: Matrigel invasion assay, SKOV3; assay type: cell-based, human; conditions: 48 h
Procedure: Matrigel invasion assays were performed using a BioCoat Matrigel Invasion Chamber (BD Bioscience, Bedford, MA, USA). A2780 and SKOV3 cells (50,000 cells) were placed inside the chamber in serum-free medium containing 500 μL of drugs, and 700 μL of medium containing serum were placed outside the chamber. After incubation for 48 h, the infiltrating cells were stained using the Differential Quick Stain Kit (Cat.no. 26096-50, Electron Microscopy Sciences, Hatfield, PA, USA). Cells were imaged with a Slide Scanner (Aperio CS2, Leica Microsystems, Wetzlar, Germany) and the number of invading cells was quantified using Image J.

[2] = target: T1, gp130 (Homo sapiens, UniProt P40189); test: Surface plasmon resonance, immobilized gp130; assay type: binding; conditions: SPR, CM5 chip, steady-state KD
T1 construct: purchased Sino Biological or ANRT
T1 sequence (P40189 23-918): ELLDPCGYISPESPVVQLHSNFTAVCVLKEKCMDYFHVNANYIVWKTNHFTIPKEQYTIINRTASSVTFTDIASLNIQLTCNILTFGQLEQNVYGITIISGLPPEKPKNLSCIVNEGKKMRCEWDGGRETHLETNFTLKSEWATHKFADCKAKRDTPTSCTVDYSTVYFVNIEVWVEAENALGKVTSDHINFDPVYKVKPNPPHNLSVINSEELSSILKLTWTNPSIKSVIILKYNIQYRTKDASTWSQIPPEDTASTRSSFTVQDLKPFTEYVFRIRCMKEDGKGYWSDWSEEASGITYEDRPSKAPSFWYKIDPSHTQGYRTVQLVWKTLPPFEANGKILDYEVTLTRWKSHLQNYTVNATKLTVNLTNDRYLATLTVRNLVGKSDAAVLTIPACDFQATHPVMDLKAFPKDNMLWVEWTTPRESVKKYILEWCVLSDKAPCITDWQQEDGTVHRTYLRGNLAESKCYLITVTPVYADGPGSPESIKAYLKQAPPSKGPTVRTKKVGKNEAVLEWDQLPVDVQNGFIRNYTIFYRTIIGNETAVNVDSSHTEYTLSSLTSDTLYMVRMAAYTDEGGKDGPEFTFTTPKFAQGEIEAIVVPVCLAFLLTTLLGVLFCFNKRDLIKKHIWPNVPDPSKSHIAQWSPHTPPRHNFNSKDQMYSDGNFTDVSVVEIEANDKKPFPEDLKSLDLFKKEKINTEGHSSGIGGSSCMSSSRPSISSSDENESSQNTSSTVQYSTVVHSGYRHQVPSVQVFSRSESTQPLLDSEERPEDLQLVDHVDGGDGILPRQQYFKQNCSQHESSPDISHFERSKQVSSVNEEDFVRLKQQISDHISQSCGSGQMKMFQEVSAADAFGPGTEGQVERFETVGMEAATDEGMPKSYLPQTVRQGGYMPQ
Procedure: (§1) The surface plasmon resonance (SPR) assay was measured using the BIAcore T200 model (GE Healthcare, Chicago, IL, USA) with HBS-EP buffer (1×HBS-EP, GE Healthcare, Chicago, IL, USA) containing 5% dimethyl sulfoxide (DMSO; Sigma-Aldrich, St. Louis, MO, USA). The pH scouting for IL-6 (PeproTech, Rocky Hill, NJ, USA), IL-6Rα (PeproTech, Rocky Hill, NJ, USA), and gp130 (Sino Biological, Beijing, China, or ANRT, Daejeon, Korea) immobilization was performed in 10 mM acetate buffer at pH 4.5. IL-6, IL-6Rα, and gp130 were immobilized on a CM5 chip at 750, 1200, and 2000 response units (RU). Butein was injected into the IL-6, IL-6Rα and gp130-immobilized flow cell at concentrations of 10, 20, 30, 40, 50, 60, 70, 80, 90, and 100 μM with a 25 μL/min flow rate for 150 s and allowed to dissociate for 300 s. Steady-state KD was determined via the T-200 BIAevaluation software (GE Healthcare, Chicago, IL, USA).

[3] = tested on: IL-6 signaling in HEK-Blue™ IL-6 cells; test: IL-6 inhibitory bioassay with HEK-Blue IL-6 cells (SEAP activity); assay type: cell-based, human; conditions: 10 ng/mL IL-6, 24 h
Procedure: HEK-Blue™ IL-6 cells were obtained from InvivoGen (San Diego, CA, USA). In a 96-well plate, 20 μL butein at various concentrations (0, 3.125, 6.25, 12.5, 25, and 50 μM) were added to the cell suspension (50,000 cells/200 μL). Following this, the recombinant human IL-6 (BioLegend, San Diego, CA, USA) was administered at 10 ng/mL. After 24 h, 20 μL of the IL-6-treated cell suspension was added to 180 μL of QUANTI-Blue™ Solution (JnvivoGen, San Diego, CA, USA) in a new 96-well plate. After 2 h of incubation at 37 °C, the spectrophotometric absorbance between 620 and 655 nm was recorded.

[4] = target: T2, IL-6Rα (Homo sapiens, UniProt P08887); test: Surface plasmon resonance, immobilized IL-6Rα; assay type: binding; conditions: SPR, CM5 chip, steady-state KD
T2 construct: purchased PeproTech
T2 sequence (P08887 20-468): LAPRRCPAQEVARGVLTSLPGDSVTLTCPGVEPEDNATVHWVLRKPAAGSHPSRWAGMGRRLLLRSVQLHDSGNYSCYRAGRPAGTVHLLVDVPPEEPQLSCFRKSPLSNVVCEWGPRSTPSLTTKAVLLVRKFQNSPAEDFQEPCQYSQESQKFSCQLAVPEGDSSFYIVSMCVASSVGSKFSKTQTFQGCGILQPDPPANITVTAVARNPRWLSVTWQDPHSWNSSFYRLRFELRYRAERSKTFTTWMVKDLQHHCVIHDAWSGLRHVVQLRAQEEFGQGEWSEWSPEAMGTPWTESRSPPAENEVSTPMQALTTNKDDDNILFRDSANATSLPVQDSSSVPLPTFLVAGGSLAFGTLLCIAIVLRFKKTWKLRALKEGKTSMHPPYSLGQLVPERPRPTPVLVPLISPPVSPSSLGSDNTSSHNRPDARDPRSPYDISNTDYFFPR
Procedure: as §1

[5] = tested on: A2780 cells; test: Clonogenic formation assay, A2780; assay type: cell-based, human; conditions: compared with control siltuximab-treated cells
Procedure: A2780 and SKOV3 cell lines were seeded at approximately 5000 cells/well in 24-well plates. Butein was added to the cell medium at various concentrations (5, 10, and 25 μM) together with control siltuximab (CTNO328; EUSA Pharma, Inc., Hemel Hempstead, UK) for 12 h. After 2 weeks, the colonies formed were fixed with fixer buffer, stained with crystal violet, and imaged with a ChemiDoc imaging system (Bio-Rad, Herles, CA, USA).

Kd [2]: 616 µM
Kd [4]: 435 µM
SMILES: O=C(/C=C/c1ccc(O)c(O)c1)c1ccc(O)cc1O [butein]
Cell infiltration (invasion), SKOV3 [1]: similarly affected
Inhibition of SEAP signal of HEK-Blue IL-6 ([3]; 0-50 μM): maximum inhibition
LogIC50, HEK-Blue IL-6 SEAP activity [3]: 1.049±0.524 μM
IC50 ([3]; Homo sapiens, HEK-Blue IL-6): 12.9 ± 0.15 µM
Clonogenicity, A2780 [5]: significantly inhibited
